In patent publication US11518758B2, “Heteroarylaminopyrimidine amide autophagy inhibitors and methods of use thereof” (Deciphera Pharmaceuticals, LLC, priority 2019, dated 2022):

How the values were obtained:
LRRK2 kinase = molecular target: T1, LRRK2 kinase (Homo sapiens, UniProt Q5S007); assay: Biochemical assay for LRRK2 (coupled pyruvate kinase/lactate dehydrogenase assay); details: 26.4 nM LRRK2 (residues 970-2528), 0.1 mM peptide substrate, 1 mM ATP
T1 construct: purchased Thermo Fisher
Method: Example 182. Biochemical Assay for LRRK2 (SEQ. ID NO. 4)
(§1) Activity of LRRK2 kinase was determined spectroscopically using a coupled pyruvate kinase/lactate dehydrogenase assay that continuously monitors the ATP hydrolysis-dependent oxidation of NADH (e.g., Schindler et al. Science (2000) 289: 1938-1942). Assays were conducted in 384-well plates (100 uL final volume) using 26.4 nM LRRK2 (Thermo Fisher), 0.1 mM peptide substrate (RLGRDKYKTLRQIRQ (SEQ ID NO: 6)), 1.5 units pyruvate kinase, 2.1 units lactate dehydrogenase, 1 mM phosphoenol pyruvate, 0.28 mM NADH and 1 mM ATP in assay buffer (100 mM Tris, pH 7.5, 15 mM MgCl2, 0.5 mM DTT, 0.004% (w/v) BSA, and 0.004% Triton X-100). Inhibition of LRRK2 was measured by adding serial diluted test compound (final assay concentration of 1% DMSO). A decrease in absorption at 340 nm was monitored continuously for 6 hours at 30° C. on a multi-mode microplate reader (BioTek). The reaction rate was calculated using the 2-3 h time frame. The reaction rate at each concentration of compound was converted to percent inhibition using controls (i.e. reaction with no test compound and reaction with a known inhibitor) and IC50 values were calculated using software routines in Prism (GraphPad software).

ULK1 kinase [1] = molecular target: T2, ULK1 kinase (Homo sapiens, UniProt O75385, E37A/K38A); assay: Biochemical assay for ULK1.3 (coupled pyruvate kinase/lactate dehydrogenase assay); details: 0.1 nM ULK1 (from Beryllium), peptide substrate, 1 mM ATP
T2 construct: (residues 1-283; ID NO: 2); purchased Beryllium
T2 sequence (O75385 1-283 E37A/K38A): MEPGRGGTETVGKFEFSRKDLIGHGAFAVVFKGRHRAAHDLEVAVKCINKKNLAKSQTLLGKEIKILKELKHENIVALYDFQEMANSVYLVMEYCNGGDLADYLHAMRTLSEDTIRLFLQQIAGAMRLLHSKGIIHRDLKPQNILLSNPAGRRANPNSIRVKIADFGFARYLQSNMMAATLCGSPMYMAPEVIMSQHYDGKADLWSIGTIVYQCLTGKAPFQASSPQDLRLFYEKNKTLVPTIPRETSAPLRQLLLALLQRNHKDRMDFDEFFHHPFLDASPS
Method: Example 175. Biochemical Assay for ULK1.3
as §1, with “ULK1” for “LRRK2”, “0.1” for “26.4”, “ULK1 (from Beryllium), 0.075” for “LRRK2 (Thermo Fisher), 0.1”, “(YANWLAASIYLDGKKK” for “(RLGRDKYKTLRQIRQ”, “5)),” for “6)),”

[2] = tested on: phospho-Serine 318 ATG13 (pATG13), ULK kinase substrate, in A549 (KRAS mutant) cells; assay: pATG13 levels of mutant KRas A549 cells after treatment with ULK inhibitors in combination with trametinib (ELISA); assay type: cell-based, human; details: with 250 nM trametinib
Summary of the method: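 A549 cells grown overnight were treated overnight at 37 °C with a dose response of test compound plus 250 nM trametinib (final) or DMSO. Lysates were assayed by sandwich ELISA, with total ATG13 capture and biotinylated pS318-ATG13 detection read at 450 nm minus 540 nm, giving % phosphorylation against control and IC50.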

ULK1 kinase [3] = molecular target: T3, ULK1 kinase (Homo sapiens, UniProt O75385); assay: Biochemical assay for ULK1.2 (coupled pyruvate kinase/lactate dehydrogenase assay); details: 19 nM ULK1 (Eurofins), myelin basic protein, 1 mM ATP
T3 construct: purchased Eurofins 14-959
T3 sequence (O75385 with tags, fused parts or gaps): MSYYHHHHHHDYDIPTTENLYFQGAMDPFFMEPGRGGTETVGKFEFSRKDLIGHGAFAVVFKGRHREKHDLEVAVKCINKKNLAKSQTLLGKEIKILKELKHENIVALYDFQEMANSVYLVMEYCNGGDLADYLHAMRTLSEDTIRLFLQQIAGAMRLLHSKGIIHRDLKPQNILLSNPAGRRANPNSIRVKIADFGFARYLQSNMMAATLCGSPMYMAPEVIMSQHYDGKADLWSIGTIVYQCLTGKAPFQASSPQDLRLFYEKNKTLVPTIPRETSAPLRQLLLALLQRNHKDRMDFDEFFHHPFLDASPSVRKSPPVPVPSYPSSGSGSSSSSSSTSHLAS
Summary of the method: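 NADH-coupled PK/LDH read-out at 340 nm, run with 19 nM ULK1, 0.25 mg/mL myelin basic protein and 1 mM ATP. Buffer was 100 mM Tris pH 7.5 with 15 mM MgCl2 and 1% DMSO final. Monitoring was continuous for 6 hours at 30° C; rates from the 2-3 h window were converted to percent inhibition and fitted to a four-parameter curve for IC50.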

[4] = tested on: phospho-Serine 318 ATG13 (pATG13) in MiaPaCa-2 cells; assay: pATG13 levels of mutant KRas MiaPaCa-2 cells after treatment with ULK inhibitors in combination with trametinib (ELISA); assay type: cell-based, human
Method: Example 178. pATG13 Levels of Mutant KRas MiaPaCa-2 Cells after Treatment with ULK Inhibitors in Combination with Trametinib
MiaPaCa-2 human pancreatic cancer cells (10000 cells/well) were added to a 384-well tissue-culture treated plate in 50 μL of pre-warmed DMEM medium supplemented with 10% characterized fetal bovine serum (Invitrogen, Carlsbad, Calif.), 100 units/mL penicillin G, 100 μg/mL streptomycin, and 2.5% Horse Serum and allowed to grow overnight at 37° C., 5% CO2, and 95% humidity. The following day, 10 μL of media containing trametinib or DMSO as a control was added to wells. The final concentration of trametinib in wells was 250 nM. A dose response of a test compound (0.6 μL per well) was added. DMSO (0.6 μL) was added to control wells. The plate was briefly shaken to mix wells and then incubated at 37° C. overnight. The next day, the media was aspirated and cells were washed with Dulbecco's Phosphate Buffered Saline (Gibco). Cells were lysed using MPER lysis buffer (Pierce, Rockford, Ill.) containing Halt Phosphatase and Protease Inhibitors (Pierce, Rockford, Ill.) and Phosphatase inhibitor cocktail 2 (Sigma, St. Louis, Mo.) at 4° C. for 10 minutes with shaking.
Cellular levels of phospho-Serine 318 ATG13 (pATG13) were measured via an ELISA method. Total ATG13 Antibody (Cell Signaling Cat #13273) was used to coat the wells. The plate was incubated at 4° C. overnight and washed with ELISA wash buffer (Biolegend Cat #421601). The wells were then blocked with assay diluent (Biolegend Cat #421203) for 1 hour at room temperature. Plate wells were washed with ELISA wash buffer. Cell lysate was added to wells and incubated at room temperature for 2 hours. Plate wells were washed with ELISA wash buffer. Biotinylated pS318-ATG13 antibody (Rockland Immunochemicals Cat #600-401-C49) was diluted in assay diluent and added to each well and incubated at room temperature for 1 hour. Plate wells were washed with ELISA wash buffer. Streptavidin linked to horseradish peroxidase (Thermo Fisher Cat #21140) was diluted in assay diluent and added to each well and incubated at room temperature for 1 hour. Plate wells were washed with ELISA wash buffer. High sensitivity TMB substrate (Biolegend Cat #421101) was added to each well and incubated at room temperature for 20 minutes. The reaction was stopped with 2N Sulfuric Acid. The plate was analyzed at on a plate reader measuring absorbance at 450 nm and 540 nm (background). Signal was calculated by first subtracting the background absorbance at 540 nm from the absorbance at 450 nm for each well. Next, the background corrected absorbance at 450 nm from blank wells was subtracted from test wells. Data was compared to control wells to determine % ATG13 phosphorylation. GraphPad Prism was used to calculate IC50 values.

T1 sequence (Q5S007 with tags, fused parts or gaps): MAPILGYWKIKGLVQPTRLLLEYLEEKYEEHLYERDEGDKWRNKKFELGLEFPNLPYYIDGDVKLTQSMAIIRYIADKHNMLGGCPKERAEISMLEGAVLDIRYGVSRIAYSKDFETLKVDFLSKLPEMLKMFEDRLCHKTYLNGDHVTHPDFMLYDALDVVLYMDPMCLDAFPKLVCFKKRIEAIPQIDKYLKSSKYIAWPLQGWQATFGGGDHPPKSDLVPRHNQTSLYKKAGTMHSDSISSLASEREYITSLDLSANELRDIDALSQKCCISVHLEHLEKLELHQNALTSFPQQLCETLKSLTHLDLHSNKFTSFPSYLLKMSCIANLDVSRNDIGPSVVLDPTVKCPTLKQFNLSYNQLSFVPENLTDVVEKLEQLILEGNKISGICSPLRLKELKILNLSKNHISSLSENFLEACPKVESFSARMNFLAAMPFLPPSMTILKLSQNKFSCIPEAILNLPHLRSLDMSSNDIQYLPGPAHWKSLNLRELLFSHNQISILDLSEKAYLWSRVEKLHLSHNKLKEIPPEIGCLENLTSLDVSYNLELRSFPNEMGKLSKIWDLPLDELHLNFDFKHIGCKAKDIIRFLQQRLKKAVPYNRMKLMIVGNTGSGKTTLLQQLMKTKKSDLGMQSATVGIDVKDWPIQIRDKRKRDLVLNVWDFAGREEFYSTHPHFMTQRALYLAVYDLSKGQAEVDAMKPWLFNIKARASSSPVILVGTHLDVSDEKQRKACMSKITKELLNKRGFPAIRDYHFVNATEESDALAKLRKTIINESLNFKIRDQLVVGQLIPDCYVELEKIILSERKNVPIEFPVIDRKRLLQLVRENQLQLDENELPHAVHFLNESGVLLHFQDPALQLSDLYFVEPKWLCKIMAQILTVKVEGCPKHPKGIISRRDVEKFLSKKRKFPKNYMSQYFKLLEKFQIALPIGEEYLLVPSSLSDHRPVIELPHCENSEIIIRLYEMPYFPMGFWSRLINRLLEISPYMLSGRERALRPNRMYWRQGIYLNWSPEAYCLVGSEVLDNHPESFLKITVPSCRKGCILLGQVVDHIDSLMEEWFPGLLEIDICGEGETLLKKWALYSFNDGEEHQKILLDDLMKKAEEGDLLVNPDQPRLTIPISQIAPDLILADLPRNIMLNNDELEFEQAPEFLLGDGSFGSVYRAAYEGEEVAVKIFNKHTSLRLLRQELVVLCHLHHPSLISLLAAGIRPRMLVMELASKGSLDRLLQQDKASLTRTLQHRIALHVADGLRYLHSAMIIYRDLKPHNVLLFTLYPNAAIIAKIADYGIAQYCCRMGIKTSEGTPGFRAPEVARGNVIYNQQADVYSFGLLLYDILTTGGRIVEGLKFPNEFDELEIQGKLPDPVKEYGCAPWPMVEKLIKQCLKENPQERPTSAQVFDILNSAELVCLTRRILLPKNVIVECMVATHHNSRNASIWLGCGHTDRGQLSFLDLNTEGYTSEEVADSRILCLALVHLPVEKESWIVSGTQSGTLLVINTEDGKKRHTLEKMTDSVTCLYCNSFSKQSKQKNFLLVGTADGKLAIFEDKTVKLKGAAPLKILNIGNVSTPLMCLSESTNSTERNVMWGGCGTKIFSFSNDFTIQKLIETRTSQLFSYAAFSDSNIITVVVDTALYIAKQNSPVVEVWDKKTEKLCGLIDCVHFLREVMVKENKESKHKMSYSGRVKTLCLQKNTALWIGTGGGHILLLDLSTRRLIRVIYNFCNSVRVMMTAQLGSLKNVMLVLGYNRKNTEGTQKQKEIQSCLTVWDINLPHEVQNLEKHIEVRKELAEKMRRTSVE

| IC50 (LRRK2 kinase) | IC50 (ULK1 kinase [1]) | SMILES | further results |
| --- | --- | --- | --- |
| > 600 nM | > 500 nM | CCc1nn(C2CCN(C(C)C)CC2)cc1Nc1ncc(C2CC2)c(NCCCN2CCOCC2=O)n1 [Example 76] |  |
| > 600 nM | > 500 nM | Cc1nn(CCCN2CCOCC2)cc1Nc1ncc(C2CC2)c(NCCCN2CCOCCC2=O)n1 [Example 139] |  |
|  |  | CCc1nn(C2CCN(CC)CC2)cc1Nc1ncc(Br)c(NCCCN2CCCCC2=O)n1 [Example 54] | IC50 [2]: 100 to 300 nM; IC50 (ULK1 kinase [3]): 25 to 100 nM; IC50 [4]: 100 to 300 nM |
| > 600 nM | > 500 nM | Cc1nn(CCN(C)C)cc1Nc1ncc(C2CC2)c(NCCCN2CCCOCC2=O)n1 [Example 116] |  |
|  | 1 to 25 nM | CCc1nn(C2CCN(C)CC2)cc1Nc1ncc(C(F)(F)F)c(NCCCN2CCOCCC2=O)n1 [Example 136] |  |
| > 600 nM | > 500 nM | Cc1nn(CCN(C)C)cc1Nc1ncc(C2CC2)c(NCCCN2CCOCCC2=O)n1 [Example 140] |  |
|  | 100 to 500 nM | Cc1nn(C2CCN(C(C)C)CC2)cc1Nc1ncc(Cl)c(NCCCN2CCOCCC2=O)n1 [Example 143] |  |
|  | 100 to 500 nM | CCN(CC)CCn1cc(Nc2ncc(C(F)(F)F)c(NCCCN3CCOCCC3=O)n2)c(C)n1 [Example 146] |  |
|  | > 500 nM | Cc1nn(CCCN2CCOCC2)cc1Nc1ncc(Cl)c(NCCCN2CCCOCC2=O)n1 [Example 120] |  |
| > 600 nM | > 500 nM | Cc1nn(C2CCN(C(C)C)CC2)cc1Nc1ncc(C2CC2)c(NCCCN2CCCOCC2=O)n1 [Example 114] |  |
| > 600 nM | 100 to 500 nM | Cc1nn(C2CCN(C)CC2)cc1Nc1ncc(C2CC2)c(NCCCN2CCOCCC2=O)n1 [Example 141] |  |
| > 600 nM | > 500 nM | Cc1nn(CCCN2CCOCC2)cc1Nc1ncc(C2CC2)c(NCCCN2CCCOCC2=O)n1 [Example 115] |  |
| 1 to 100 nM | > 500 nM | Cc1nn(C(C)(C)C(N)=O)cc1Nc1ncc(C(F)(F)F)c(NCCCN2CCCCC2=O)n1 [Example 67] |  |
|  | > 500 nM | CCc1nn(C2CCN(C)CC2)cc1Nc1ncc(C2CC2)c(NCCCN2CCCOCC2=O)n1 [Example 119] |  |
|  | > 500 nM | Cc1nn(C2CCN(C(C)C)CC2)cc1Nc1ncc(C2CC2)c(NCCCN2CCOCC2=O)n1 [Example 75] |  |
| 1 to 100 nM | 100 to 500 nM | Cc1nn(C(C)(C)C#N)cc1Nc1ncc(C(F)(F)F)c(NCCCN2CCCOCC2=O)n1 [Example 172, 2-methyl-2-(3-methyl-4-((4-((3-(3-oxo-1,4-oxazepan-4-yl)propyl)amino)-5-(trifluoromethyl)pyrimidin-2-yl)amino)-1H-pyrazol-1-yl)propanenitrile] |  |
| 100 to 300 nM | 100 to 500 nM | Cc1nn([C@@H]2CCN(C)C2)cc1Nc1ncc(Cl)c(NCCCN2CCCOCC2=O)n1 [Example 113] |  |
|  | 100 to 500 nM | Cc1nn(CCN(C)C)cc1Nc1ncc(Br)c(NCCCN2CCOCCC2=O)n1 [Example 144] |  |
| > 600 nM | > 500 nM | Cc1nn(CCN(C)C)cc1Nc1ncc(Cl)c(NCCCN2CCCOCC2=O)n1 [Example 123] |  |
|  | > 500 nM | CCN1CCC(n2cc(Nc3ncc(C4CC4)c(NCCCN4CCOCCC4=O)n3)c(C)n2)CC1 [Example 142] |  |
| 1 to 100 nM | 100 to 500 nM | Cc1nn(C(C)(C)C(N)=O)cc1Nc1ncc(C(F)(F)F)c(NCCCN2CCOCCC2=O)n1 [Example 145] |  |
| 100 to 300 nM | 100 to 500 nM | Cc1nn(CCN(C)C)cc1Nc1ncc(Br)c(NCCCN2CCCOCC2=O)n1 [Example 122] |  |
| > 600 nM | > 500 nM | Cc1cn(C2CCN(C)CC2)nc1Nc1ncc(C(F)(F)F)c(NCCCN2CCCOC2=O)n1 [Example 126] |  |
| 300 to 600 nM | 100 to 500 nM | CCc1nn(C2CCN(C(C)C)CC2)cc1Nc1ncc(Cl)c(NCCCN2CCCOC2=O)n1 [Example 73] |  |
|  | 100 to 500 nM | Cc1nn(CCCN2CCOCC2)cc1Nc1ncc(Br)c(NCCCN2CCCOCC2=O)n1 [Example 121] |  |
| 1 to 100 nM | > 500 nM | Cc1nn(C(C)(C)C(N)=O)cc1Nc1ncc(C(F)(F)F)c(NCCCN2CCCOCC2=O)n1 [Example 125, 2-methyl-2-(3-methyl-4-((4-((3-(3-oxo-1,4-oxazepan-4-yl)propyl)amino)-5-(trifluoromethyl)pyrimidin-2-yl)amino)-1H-pyrazol-1-yl)propanamide] |  |
|  | 100 to 500 nM | Cc1nn(CCN(C)C)cc1Nc1ncc(C(F)(F)F)c(NCCCN2CCOCCC2=O)n1 [Example 137] |  |
|  | 25 to 100 nM | Cc1nn(CCN(C)C)cc1Nc1ncc(C(F)(F)F)c(NCCCN2CCCOCC2=O)n1 [Example 117] |  |
